Like-named read-outs stand apart in the source and are kept apart here.
Columns and labels:
collagenase [1] = details: for Collagenase Activity/Days 1: day 1; for Collagenase Activity/Days 2: day 2; for Collagenase Activity/Days 7: day 7
Experimental: Nutrient agar amended with 0.5% AZOCOLL was used as the test medium to study collagenase activity. The nutrient agar was prepared and autoclaved and then was cooled to 55° C. Azocol was added to give a final concentration of 0.5%. […] Fresh hides were obtained from a tannery and were cut into pieces of approximately 2 cm square. One 2×2 cm hide sample was placed on top of the agar containing the inhibitors. Treated samples were incubated at 30° C. and evaluated after 24 hours, 2 days, 3 or 4 days and 7 days for collagenase activity and also for the growth of the bacteria. The bacteria from the hides secreted collagenase into the medium as they grew to degrade the collagen in the azocoll medium and collagenase activity was determined by visual inspection of the clear zone around the bacteria

collagenase [2] = details: for Collagenase Activity/Days 1: day 1; for Collagenase Activity/Days 2: day 2; for Collagenase Activity/Days 7: day 7; remark: listed apart in the source
collagenase [3] = details: for Collagenase Activity/Days 1: day 1; for Collagenase Activity/Days 2: day 2; for Collagenase Activity/Days 7: day 7; remark: listed apart in the source
Aeromonas salmonicida = tested on: Aeromonas salmonicida; design: key to the marks not given beside the values; details: for Growth/Days 1: day 1; for Growth/Days 2: day 2; for Growth/Days 7: day 7
Experimental: (§1) Nutrient agar amended with Azocoll (a substrate made up of insoluble particles of collagen impregnated with a bright azo dye) was used as the test medium to study collagenase activity. The nutrient agar was prepared and autoclaved and then was cooled to 55° C. Azocol was added to give a final concentration of 0.5%. […] Using a sterile spatula or cork-borer, the middle portion of each plate of about the size of a United States quarter, was scooped out. Fresh nutrient agar-azocoll medium containing no inhibitor was added to replace the scooped out portion of the plate. […] The bacteria were grown overnight on nutrient agar. A suspension of each culture was made in sterile water and used to inoculate the middle portion of each plate. The treated samples were incubated at 30° C. and evaluated after 24 hours, 2 days and 7 days for collagenase activity and also for the growth of the bacteria. The test cultures secreted collagenase into the medium as they grew to degrade the collagen in the azocoll medium, and collagenase activity was determined by visual inspection of the clear zone around the bacteria. All % are by weight percent of the active ingredient.

[4] = tested on: mixed bacteria on fresh hide samples; design: Growth/Days 2 / Growth/Days 4: key to the marks not given beside the values; details: for Growth/Days 1: day 1; for Growth/Days 2: day 2; for Growth/Days 4: day 4;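 on all read-outs here: fresh hide pieces laid on inhibitor-containing nutrient agar supplemented with 0.5% Azocoll, incubated at 30 °C, then scored for growth of bacteria originating from the hide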
Pseudomonas fluorescens = details: for Growth/Days 1: day 1; for Growth/Days 2: day 2; for Growth/Days 7: day 7
Experimental: as §1
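Wherever Collagenase Activity/Days 4 is given: nutrient agar containing 0.5% Azocoll with inhibitor, topped by a fresh hide piece, kept at 30 °C, collagenase from hide bacteria scored visually as clearing zone around growth.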

## O=C(O)CN(CCOCCOCCN(CC(=O)O)CC(=O)O)CC(=O)O [Na4EGTA, ethylene glycol-bis(β-aminoethylether)-N,N,N′N′-tetraacetic acid]
Collagenase [1]; Conc. 0.025%
  Collagenase Activity/Days 1: ++++
  Collagenase Activity/Days 2: ++++
  Collagenase Activity/Days 7: ++++
Collagenase [1]; Conc. 0.025%, day 4
  Collagenase Activity/Days 4: ++++
Collagenase [1]; Conc. 0.05%, day 4
  Collagenase Activity/Days 4: ++++
Collagenase [1]; Conc. 0.075%
  Collagenase Activity/Days 1: 0
Collagenase [1]; Conc. 0.075%, day 4
  Collagenase Activity/Days 4: ++++
Collagenase [1]; Conc. 0.1%
  Collagenase Activity/Days 1: 0
  Collagenase Activity/Days 2: 0
Collagenase [1]; Conc. 0.1%, day 4
  Collagenase Activity/Days 4: +
Collagenase [1]; Conc. 0.2%
  Collagenase Activity/Days 1: 0
  Collagenase Activity/Days 2: 0
Collagenase [1]; Conc. 0.2%, day 4
  Collagenase Activity/Days 4: +
Collagenase [1]; Conc. 0.3%
  Collagenase Activity/Days 1: 0
  Collagenase Activity/Days 2: 0
Collagenase [1]; Conc. 0.3%, day 4
  Collagenase Activity/Days 4: +
Collagenase [1]; Conc. 0.4%
  Collagenase Activity/Days 1: 0
  Collagenase Activity/Days 2: 0
Collagenase [1]; Conc. 0.4%, day 4
  Collagenase Activity/Days 4: 0
Collagenase [1]; Conc. 0.5%, column day 4, footnote **: data collected on Day 3
  Collagenase Activity/Days 4: 0**
Collagenase [1]; Conc. 0.5%
  Collagenase Activity/Days 1: 0
  Collagenase Activity/Days 2: 0
  Collagenase Activity/Days 7: 0
Collagenase [1]; collagenase produced by the mixed culture of bacteria from the hides
  performance as collagenase inhibitors (summary in words): performed very well as collagenase inhibitors
Collagenase [2]; Conc. 0.1%
  Collagenase Activity/Days 1: 0
  Collagenase Activity/Days 2: 0
Collagenase [2]; Conc. 0.25%
  Collagenase Activity/Days 1: 0
  Collagenase Activity/Days 2: 0
  Collagenase Activity/Days 7: 0
Collagenase [2]; Conc. 0.5%
  Collagenase Activity/Days 1: 0
  Collagenase Activity/Days 2: 0
  Collagenase Activity/Days 7: 0
Collagenase [2]; collagenase produced by the bacteria studied, Table 2
  performance as collagenase inhibitors (summary in words): performed very well as collagenase inhibitors
Collagenase [3]; Conc. 0.025%
  Collagenase Activity/Days 1: ++++
  Collagenase Activity/Days 2: ++++
  Collagenase Activity/Days 7: ++++
Collagenase [3]; Conc. 0.075%
  Collagenase Activity/Days 1: 0
Collagenase [3]; Conc. 0.1%
  Collagenase Activity/Days 1: 0
  Collagenase Activity/Days 2: 0
Collagenase [3]; Conc. 0.2%
  Collagenase Activity/Days 1: 0
  Collagenase Activity/Days 2: 0
Collagenase [3]; Conc. 0.3%
  Collagenase Activity/Days 1: 0
  Collagenase Activity/Days 2: 0
Collagenase [3]; Conc. 0.4%
  Collagenase Activity/Days 1: 0
  Collagenase Activity/Days 2: 0
Collagenase [3]; Conc. 0.5%
  Collagenase Activity/Days 1: 0
  Collagenase Activity/Days 2: 0
  Collagenase Activity/Days 7: 0
Collagenase [3]; collagenase produced by the bacteria studied, Table 1
  performance as collagenase inhibitors (summary in words): performed very well as collagenase inhibitors
Aeromonas salmonicida; Conc. 0.1%
  Growth/Days 1: ++++
  Growth/Days 2: ++++
  Growth/Days 7: ++++
Aeromonas salmonicida; Conc. 0.25%
  Growth/Days 1: ++++
  Growth/Days 2: ++++
  Growth/Days 7: ++++
Aeromonas salmonicida; Conc. 0.5%
  Growth/Days 1: ++++
  Growth/Days 2: ++++
  Growth/Days 7: ++++
[4]; Conc. 0.025%
  Growth/Days 1: ++++
  Growth/Days 2: ++++
  Growth/Days 4: ++++
[4]; Conc. 0.05%
  Growth/Days 1: ++++
  Growth/Days 2: ++++
  Growth/Days 4: ++++
[4]; Conc. 0.075%
  Growth/Days 1: ++++
  Growth/Days 2: ++++
  Growth/Days 4: ++++
[4]; Conc. 0.1%
  Growth/Days 1: ++++
  Growth/Days 2: ++++
  Growth/Days 4: ++++
[4]; Conc. 0.2%
  Growth/Days 1: ++++
  Growth/Days 2: ++++
  Growth/Days 4: ++++
[4]; Conc. 0.3%
  Growth/Days 1: ++++
  Growth/Days 2: ++++
  Growth/Days 4: ++++
[4]; Conc. 0.4%
  Growth/Days 1: +++
  Growth/Days 2: ++++
  Growth/Days 4: ++++
[4]; Conc. 0.5%
  Growth/Days 1: +++
  Growth/Days 2: ++++
  Growth/Days 4: ++++
Pseudomonas fluorescens; Conc. 0.025%
  Growth/Days 1: ++++
  Growth/Days 2: ++++
  Growth/Days 7: ++++
Pseudomonas fluorescens; Conc. 0.05%
  Growth/Days 1: ++++
  Growth/Days 2: ++++
  Growth/Days 7: ++++
Pseudomonas fluorescens; Conc. 0.075%
  Growth/Days 1: ++++
  Growth/Days 2: ++++
  Growth/Days 7: ++++
Pseudomonas fluorescens; Conc. 0.1%
  Growth/Days 1: ++++
  Growth/Days 2: ++++
  Growth/Days 7: ++++
Pseudomonas fluorescens; Conc. 0.2%
  Growth/Days 1: ++++
  Growth/Days 2: ++++
  Growth/Days 7: ++++
Pseudomonas fluorescens; Conc. 0.3%
  Growth/Days 1: ++++
  Growth/Days 2: ++++
  Growth/Days 7: ++++
Pseudomonas fluorescens; Conc. 0.4%
  Growth/Days 1: ++++
  Growth/Days 2: ++++
  Growth/Days 7: ++++
Pseudomonas fluorescens; Conc. 0.5%
  Growth/Days 1: ++++
  Growth/Days 2: ++++
  Growth/Days 7: ++++
